Key:
[1] = target: T1, Histone-lysine N-methyltransferase NSD2 (Homo sapiens, UniProt O96028); test: Inhibition of recombinant human NSD2 (941 to 1240 residues) using SAM as substrate incubated for 3 hrs by AlphaLISA assay
T1 sequence (O96028 whole entry): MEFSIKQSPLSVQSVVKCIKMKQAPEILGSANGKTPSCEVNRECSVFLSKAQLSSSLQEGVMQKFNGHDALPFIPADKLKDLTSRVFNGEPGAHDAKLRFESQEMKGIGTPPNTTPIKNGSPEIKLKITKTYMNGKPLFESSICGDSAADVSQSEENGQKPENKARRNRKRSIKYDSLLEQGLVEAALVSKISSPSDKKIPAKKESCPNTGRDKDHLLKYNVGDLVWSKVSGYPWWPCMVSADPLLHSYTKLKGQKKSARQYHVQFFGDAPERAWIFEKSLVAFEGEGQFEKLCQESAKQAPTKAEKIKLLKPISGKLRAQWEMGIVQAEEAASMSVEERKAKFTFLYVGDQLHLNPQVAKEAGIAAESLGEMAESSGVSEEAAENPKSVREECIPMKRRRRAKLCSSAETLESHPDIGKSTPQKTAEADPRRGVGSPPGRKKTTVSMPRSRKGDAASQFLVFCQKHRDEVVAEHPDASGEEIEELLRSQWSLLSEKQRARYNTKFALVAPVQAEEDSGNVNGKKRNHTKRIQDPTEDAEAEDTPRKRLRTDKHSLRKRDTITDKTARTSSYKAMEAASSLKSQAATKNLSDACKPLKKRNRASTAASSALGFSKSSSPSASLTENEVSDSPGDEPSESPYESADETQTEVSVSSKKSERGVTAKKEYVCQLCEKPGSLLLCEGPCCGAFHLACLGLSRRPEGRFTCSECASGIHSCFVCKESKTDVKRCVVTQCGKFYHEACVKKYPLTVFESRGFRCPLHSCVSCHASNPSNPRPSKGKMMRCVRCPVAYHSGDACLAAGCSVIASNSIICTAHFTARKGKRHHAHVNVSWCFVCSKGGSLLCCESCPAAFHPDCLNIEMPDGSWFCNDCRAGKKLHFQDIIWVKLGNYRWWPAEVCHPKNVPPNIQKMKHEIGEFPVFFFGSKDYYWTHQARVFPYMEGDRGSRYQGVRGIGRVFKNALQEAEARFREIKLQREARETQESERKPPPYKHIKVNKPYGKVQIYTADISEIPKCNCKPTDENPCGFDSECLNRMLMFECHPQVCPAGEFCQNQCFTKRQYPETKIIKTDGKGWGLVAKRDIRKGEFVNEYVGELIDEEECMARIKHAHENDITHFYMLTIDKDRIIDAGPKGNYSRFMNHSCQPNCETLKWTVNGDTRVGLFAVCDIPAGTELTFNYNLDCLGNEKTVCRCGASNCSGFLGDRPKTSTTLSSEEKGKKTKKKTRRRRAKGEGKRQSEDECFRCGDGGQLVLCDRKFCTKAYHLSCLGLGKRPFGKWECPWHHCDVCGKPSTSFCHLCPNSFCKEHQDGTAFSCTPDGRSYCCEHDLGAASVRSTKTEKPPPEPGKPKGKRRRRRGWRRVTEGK

[2] = target: T1, Histone-lysine N-methyltransferase NSD2; test: Inhibition of human NSD2 SET domain-mediated H3K36 methylation using histone H3 as substrate by colorimetric analysis
[3] = target: T1, Histone-lysine N-methyltransferase NSD2; test: Inhibition of human NSD2 (934 to 1241 residues) expressed in Escherichia coli BL21 (DE3) using [3H]-SAM as substrate incubated for 1 hr by TopCount radioactivity counter
[4] = Apparent permeability coefficient, Papp in MDCK cells; assay type: ADME, cell-based, Canis lupus familiaris; conditions: dog
[5] = system: KMS-11; test: Antiproliferative activity against human KMS-11 cells assessed as inhibition of cell growth incubated for 6 days by CCK-8 assay; assay type: functional, cell-based; conditions: KMS-11, 144 h
[6] = target: T1, Histone-lysine N-methyltransferase NSD2; test: Inhibition of human NSD2 SET domain (948 to 1239 residues)-mediated mono-methylation activity assessed as reduction in H3K36me1 level incubated for 1 hr
[7] = Half life in ICR mouse at 1 mg/kg, iv measured for 24 hrs by LC-MS/MS analysis; assay type: ADME, organism-based; conditions: in vivo
[8] = AUClast in ICR mouse at 1 mg/kg, iv measured for 24 hrs by LC-MS/MS analysis; assay type: ADME, organism-based; parameters: dose 1 mg/kg, time 24 hrs, route iv; conditions: in vivo
[9] = Tmax in ICR mouse at 3 mg/kg, po measured for 24 hrs by LC-MS/MS analysis; assay type: ADME, organism-based; conditions: in vivo
[10] = Half life in ICR mouse at 3 mg/kg, po measured for 24 hrs by LC-MS/MS analysis; assay type: ADME, organism-based; conditions: in vivo
[11] = AUClast in ICR mouse at 3 mg/kg, po measured for 24 hrs by LC-MS/MS analysis; assay type: ADME, organism-based; parameters: dose 3 mg/kg, time 24 hrs, route po; conditions: in vivo
[12] = Oral bioavailability in ICR mouse at 3 mg/kg measured for 24 hrs by LC-MS/MS analysis; assay type: ADME, organism-based; conditions: in vivo
[13] = Cmax in ICR mouse at 3 mg/kg, po measured for 24 hrs by LC-MS/MS analysis; assay type: ADME, organism-based; parameters: dose 3 mg/kg, time 24 hrs, route po; conditions: in vivo
[14] = Observed clearance in ICR mouse at 1 mg/kg, iv measured for 24 hrs by LC-MS/MS analysis; assay type: ADME, organism-based; conditions: in vivo

Structure (SMILES)	IC50 [1]	also measured
O=C1O[C@@H](C(=O)N2CCN(Cc3nc4sc5c(c4c(=O)[nH]3)CCCC5)CC2)Cc2ccccc21		IC50 [2]: 132000 nM
CC(C)(O)[C@H](F)CNC1=C(Cl)C(=O)c2ccc(N3CCCC3)nc2C1=O	360 nM	
Nc1ncnc2c1ncn2[C@@H]1O[C@H](C[C@@H](N)CC[C@H](N)C(=O)O)[C@@H](O)[C@H]1O [SINEFUNGIN]		IC50 [3]: 79000 nM
CC(C)(O)[C@H](F)CNC1=C(Cl)C(=O)c2ccc(N3C[C@@H](O)[C@H](O)C3)nc2C1=O	1220 nM	
CC(C)(O)[C@H](F)CNC1=C(Cl)C(=O)c2ccc(Cl)nc2C1=O	250 nM	Papp [4]: 29 ×10⁻⁶ cm/s; IC50 [5]: 6070 nM
CCN(c1cc(-c2ccc(CN3CCOCC3)cc2)cc(C(=O)NCc2c(C)cc(C)[nH]c2=O)c1C)C1CCOCC1 [TAZEMETOSTAT]		IC50 [5]: > 20000 nM
O=C1C(NCCc2c[nH]c3ccccc23)=C(Cl)C(=O)c2ncccc21	2290 nM	
O=C1C(NC2CCc3ccccc32)=C(Cl)C(=O)c2ncccc21 (centres undefined)	450 nM	
COc1cc2nc(N3CCCN(C)CC3)nc(NC3CCN(Cc4ccccc4)CC3)c2cc1OC		IC50 [6]: 41000 nM
O=C1C(Cl)=C(NCCc2c[nH]c3ccccc23)C(=O)c2ncccc21	450 nM	
O=C1C(NC23CC(NC(=O)C4CC4(F)F)(C2)C3)=C(Cl)C(=O)c2ncccc21 (centres undefined)	1460 nM	
C[C@@](O)(C(=O)NC12CC(NC3=CC(=O)c4ncccc4C3=O)(C1)C2)C(F)(F)F	1290 nM	

Now from value to compound, other results behind:

IC50 [1]	Structure (SMILES)	also measured
360 nM	CC(F)(F)C(=O)NC1CN(C2=C(Cl)C(=O)c3ncccc3C2=O)C1	
990 nM	C[C@@](O)(C(=O)N1CCC(O)(CCNC2=C(Cl)C(=O)c3ncccc3C2=O)CC1)C(F)(F)F	
490 nM	CC#CC(=O)NCCC1CCN(C2=C(Cl)C(=O)c3ncccc3C2=O)CC1	
330 nM	CC(F)(F)C(=O)N1CCC2(CC1)CN(C1=C(Cl)C(=O)c3cccnc3C1=O)C2	
410 nM	O=C1C(Cl)=C(NC23CC(NC(=O)C4CC4(F)F)(C2)C3)C(=O)c2ncccc21 (centres undefined)	
470 nM	CC(F)(F)C(=O)NC1CN(C2=C(Cl)C(=O)c3cccnc3C2=O)C1	
330 nM	CC(F)(F)C(=O)NC12CC(NC3=C(Cl)C(=O)c4ncccc4C3=O)(C1)C2	half-life [7]: 1.92 h; AUC(0-t) at 24 h [8]: 476 ng·h/mL; Tmax [9]: 0.42 h; half-life [10]: 5.12 h; AUC(0-t) at 24 h [11]: 758 ng·h/mL; bioavailability [12]: 53.1%; Cmax [13]: 707 ng/mL; clearance [14]: 33.4 mL/min/kg; Papp [4]: 49.4 ×10⁻⁶ cm/s; IC50 [5]: 350 nM
2340 nM	CC(F)(F)C(=O)NCCC1CCN(C2=C(Cl)C(=O)c3cccnc3C2=O)CC1	
1710 nM	CC#CC(=O)NCCC1CCN(C2=C(Cl)C(=O)c3cccnc3C2=O)CC1	
760 nM	CC#CC(=O)N1CCC2(CC1)CN(C1=C(Cl)C(=O)c3cccnc3C1=O)C2	

Source: ChEMBL document CHEMBL5316318, “Structural Modification and Pharmacological Evaluation of Substituted Quinoline-5,8-diones as Potent NSD2 Inhibitors” (J Med Chem, 2023)
